Columns and labels:
[1] = system: HCV replicon cells Huh 9B; test: HCV replicon luciferase assay; assay type: cell-based; conditions: Hepatitis C virus; Huh 9B replicon cells, 72 h incubation, luciferase readout
Procedure: (§1) HCV replicon cells Huh 9B (ReBlikon), containing the firefly luciferase—ubiquitin—neomycin phosphotransferase fusion protein and EMCV-IRES driven HCV polyprotein with cell culture adaptive mutations.
(§2) Cells were cultured at 37° C. in a 5% CO2 environment and split twice a week on seeding at 2×10E6 cells/flask on day 1 and 1×10E6 3 days later. Some 0.25 mg/ml G418 was added to the culture medium (125 ul per 25 ml) but not the assay medium.
(§3) The culture medium consisted of DMEM with […] glucose and glutamax (Gibco 61965-026) supplemented with 1× non-essential amino acids, penicillin (100 IU/ml) / streptomycin (100 μg/ml), FCS (10%, 50 ml) and 1 mg/ml G418 (Invitrogen cat no 10131-027) & 10% foetal calf serum.
(§4) A flask of cells was trypsinised and a cell count carried out. Cells were diluted to 100,000 cells/ml and 100 μl of this used to seed one opaque white 96-well plate (for the replicon assay) and one flat-bottomed clear plate (for the tox assay) for every seven compounds to be tested for IC50. Wells G12 and H12 were left empty in the clear plate as the blank. Plates were then incubated at 37° C. in a 5% CO2 environment for 24 h.
(§5) On the following day compound dilutions are made up in medium at twice their desired final concentration in a clear round bottomed plate. All dilutions have a final DMSO concentration of 1%.
(§6) Once the dilution plate had been made up, controls and compounds were transferred to the assay plate (containing the cells) at 100 μl/well in duplicate plates. Exception: in the white (replicon) plate, no compound was added to wells A1 and A2 and 100 μl of 1% DMSO was added to these instead. In the clear (Tox) plate, wells E12 & F12 only contained the DMSO control. Plates were then incubated at 37° C. with 5% CO2 for 72 h.
At the end of the incubation time, the cells in the white plate were harvested by washing with 200 μl/well of warm (37° C.) PBS and lysed with 20 μl cell culture lysis buffer (Promega). […]

[2] = system: HCV replicon cells Huh 9B; test: Tox assay (methylene blue staining of replicon cells); assay type: cell-based; conditions: Huh 9B replicon cells, 72 h incubation, methylene blue absorbance at 620 nm
Procedure: as §1, §2, §3, §4, §5
as §6, with “Plates were then incubated at 37° C. with 5% CO2 for 72 h.” left out
The clear plate was stained with 100 μl 0.5% methylene blue in 50% ethanol at RT for 1 h, followed by solvation of the absorbed methylene blue in 100 μl per well of 1% lauroylsarcosine. Absorbance of the plate was measured on a microplate spectrophotometer (Molecular Devices) and the absorbance for each concentration of compound expressed as a proportion of the relative DMSO control. […]

Compound	IC50 [1] [nM]	Replicon TD50 [2]
c1nc(Nc2ccc(-n3cncn3)cc2)c2cc(-c3ccc4ncnc(Nc5ccc(-n6cncn6)cc5)c4c3)ccc2n1 [Example 3, N*4*,N*4′*-Bis-(4-[1,2,4]triazol-1-yl-phenyl)-[6,6′]biquinazolinyl-4,4′-diamine]	< 1000	*** (>25 uM = ***)
c1ccc(Nc2ncnc3ccc(-c4ccc5ncnc(Nc6ccc(N7CCOCC7)cc6)c5c4)cc23)cc1 [Example 2, N*4*-(4-Morpholin-4-yl-phenyl)-N*4′*-phenyl-[6,6′]biquinazolinyl-4,4′-diamine]	< 1000	*** (>25 uM = ***)
c1nc(Nc2ccc(N3CCOCC3)cc2)c2cc(-c3ccc4ncnc(Nc5ccc(N6CCOCC6)cc5)c4c3)ccc2n1 [Example 1, N-(4-morpholinophenyl)-6-(4-(4-morpholinophenylamino)quinazolin-6-yl)quinazolin-4-amine]	< 1000	*** (>25 uM = ***)

Reference: patent publication US20080114008A1, “Quinazoline Derivatives as Antiviral Agents” (ARROW THERAPEUTICS LIMITED, priority 2005, published 2008)
